Reference: publication PMC10825133, “Repurposing proteasome inhibitors for improved treatment of triple-negative breast cancer” (Cell Death Discovery, 2024)
Where two headings read alike, the source gives them in different places.

How the values were obtained:
CAL-148 cells = assay: Resazurin-based cell viability assay, monotherapy drug screen; set-up: species or system human; AUC: unit not given beside the values; settings: CAL-148; for AUC: area under the dose response curve, 24 h; for GRmax: drug efficacy at highest tested dose (<0 cytotoxic, 0 cytostatic, >0 partial growth inhibition)
[1] = system: eight TNBC cell lines (BT-549, CAL-148, HCC1806, HCC38, HCC70, MDA-MB-436, MDA-MB-453, MDA-MB-468); assay: Monotherapy drug screen, mean across the TNBC cell lines; settings: for cytotoxic effect at the highest dose: by GRmax
Method in brief: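 Cells seeded at 4.0 × 10^3–7.5 × 10^3/well, grown 24 h, then drug-treated 24 h with matched solvent-vehicle controls per concentration; resazurin absorbance read-out, viability normalised to vehicle after background subtraction, t = 0 untreated cells for GR. AUC, IC50, GR50, GRmax via GRmetrics; combinations predicted by IDACombo, synergy scored with SynergyFinder.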

HCC1806 cells = assay: Resazurin-based cell viability assay, monotherapy drug screen; set-up: species or system human; AUC: scale not given here; settings: HCC1806; for AUC: area under the dose response curve, 24 h; for GRmax: drug efficacy at highest tested dose (<0 cytotoxic, 0 cytostatic, >0 partial growth inhibition)
Method in brief: (§1)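 Cells were seeded at the highest density (tested 1000-16000 cells/well) giving linear growth between days 1 and 3, keeping them in exponential phase over the ~52 h experiment. Viability was read after 4 h at 37 °C with 0.2 mg/ml resazurin added at 10% of medium volume; ex 560/em 615 nm.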

BT-549 cells = assay: as above; set-up: species or system human; AUC: scale not given here; settings: BT-549; for AUC: area under the dose response curve, 24 h; for GRmax: drug efficacy at highest tested dose (<0 cytotoxic, 0 cytostatic, >0 partial growth inhibition)
Method in brief: as §1

MDA-MB-468 cells = assay: as above; set-up: species or system human; AUC: scale not given here; settings: MDA-MB-468; for AUC: area under the dose response curve, 24 h
Method in brief: as §1

MDA-MB-436 cells = assay: as above; set-up: species or system human; AUC: scale not given here; settings: MDA-MB-436; for AUC: area under the dose response curve, 24 h; for GRmax: drug efficacy at highest tested dose (<0 cytotoxic, 0 cytostatic, >0 partial growth inhibition)
Method in brief: as §1

MCF-7 cells = assay: as above; set-up: species or system human; AUC: scale not given here; settings: MCF-7; for AUC: area under the dose response curve, 24 h; for GRmax: drug efficacy at highest tested dose (<0 cytotoxic, 0 cytostatic, >0 partial growth inhibition)
Method in brief: as §1

HCC70 cells = assay: as above; set-up: species or system human; AUC: scale not given here; settings: HCC70; for AUC: area under the dose response curve, 24 h; for GRmax: drug efficacy at highest tested dose (<0 cytotoxic, 0 cytostatic, >0 partial growth inhibition)
Method in brief: as §1

MCF-10A cells = assay: as above; set-up: species or system human; AUC: scale not given here; settings: for AUC: area under the dose response curve, 24 h
Method in brief: as §1

[2] = Homo sapiens, 24 h drug treatment, read-out: IC50
[3] = Homo sapiens, growth rate inhibition concentration at GR(c) = 0.5, 24 h, read-out: GR50 (the source's name)
[4] = Homo sapiens, MCF7, 24 h drug treatment, read-out: IC50
[5] = Homo sapiens, MCF7, growth rate inhibition concentration at GR(c) = 0.5, 24 h, read-out: GR50 (the source's name)
[6] = growth rate inhibition concentration at GR(c) = 0.5, 24 h, read-out: GR50 (the source's name)
[7] = 24 h drug treatment, read-out: IC50
[8] = drug efficacy at highest tested dose (<0 cytotoxic, 0 cytostatic, >0 partial growth inhibition)

Row | Compound | AUC (CAL-148 cells) | GRmax (CAL-148 cells) | IC50 (CAL-148 cells; [2]) [µM] | IC50 (CAL-148 cells; [3]) [µM] | cytotoxic effect at the highest dose ([1]; TNBC cell lines) | AUC (HCC1806 cells) | GRmax (HCC1806 cells) | IC50 (HCC1806 cells; [3]) [µM] | AUC (BT-549 cells) | GRmax (BT-549 cells) | IC50 (BT-549 cells; [2]) [µM] | IC50 (BT-549 cells; [3]) [µM] | AUC (MDA-MB-468 cells) | AUC (MDA-MB-436 cells) | GRmax (MDA-MB-436 cells) | AUC (MCF-7 cells) | GRmax (MCF-7 cells) | AUC (HCC70 cells) | GRmax (HCC70 cells) | AUC (MCF-10A cells) | further results
1 | COc1cccc2c1C(=O)c1c(O)c3c(c(O)c1C2=O)C[C@@](O)(C(=O)CO)C[C@@H]3O[C@H]1C[C@H](N)[C@H](O)[C@H](C)O1 [Doxorubicin] | 0.72 | 0.15 | 0.22 | 0.12 | lowest cytotoxic effects | 0.87 | 0.54 | 6 | 0.89 | 0.36 | 7.6 | 5.6 | 0.84 | 0.85 | 0.26 | 0.93 | 0.44 | 0.88 | −0.35 | 0.72 | IC50 (MDA-MB-468 cells; [2]): 3 µM; IC50 (MDA-MB-468 cells; [3]): 1.5 µM; IC50 (MDA-MB-436 cells; [2]): 9.7 µM; IC50 (MDA-MB-436 cells; [3]): 3.4 µM; IC50 (MCF-7 cells; [4]): 1.8 µM; IC50 (MCF-7 cells; [5]): 5.7 µM; IC50 (HCC70 cells; [2]): 3.3 µM; IC50 (HCC70 cells; [3]): 1.8 µM; IC50 (MCF-10A cells; [2]): 0.99 µM; IC50 (MCF-10A cells; [3]): 0.98 µM
2 | COc1cccc2c1C(=O)c1c(O)c3c(c(O)c1C2=O)C[C@@](O)(C(=O)CO)C[C@@H]3O[C@H]1C[C@H](N)[C@@H](O)[C@H](C)O1 [Epirubicin] | 0.73 | 0.14 | 0.2 | 0.11 | lowest cytotoxic effects | 0.86 | 0.45 | 6.2 | 0.88 | 0.34 | 4.6 | 4.3 | 0.80 | 0.84 | 0.26 | 0.89 | 0.42 | 0.83 | −0.49 | 0.69 | IC50 (MDA-MB-468 cells; [2]): 2.2 µM; IC50 (MDA-MB-468 cells; [3]): 0.96 µM; IC50 (MDA-MB-436 cells; [3]): 3.6 µM; IC50 (MCF-7 cells; [4]): 1.5 µM; IC50 (MCF-7 cells; [5]): 1.1 µM; IC50 (HCC70 cells; [2]): 1.6 µM; IC50 (HCC70 cells; [3]): 1 µM; IC50 (MCF-10A cells; [2]): 0.69 µM; IC50 (MCF-10A cells; [3]): 0.69 µM
3 | CC[C@H](C)[C@H](NC(=O)[C@H]([C@@H](C)CC)N(C)C(C)=O)C(=O)N[C@H](C(=O)N[C@@H](CC(C)C)C(=O)[C@@]1(C)CO1)[C@@H](C)O [Epoxomicin] | 0.78 | 0.11 | – | – | lowest cytotoxic effects | 0.73 | 0.34 | – | 0.73 | 0.38 | – | – | 0.65 | 0.77 | 0.37 | 0.74 | 0.42 | 0.72 | −0.52 | 0.58 | IC50 (CAL-148 cells; [6]): 0.77 µM; area under the dose response curve (AUC), mean ± SD ([1]; TNBC cell lines, 24 h): 0.69 ± 0.10; IC50 ([1]; read-out: GR50 (mean ± SD), across the TNBC cell lines, 24 h drug treatment): 0.22 ± 0.23 µM; IC50 (HCC1806 cells; [7]): 0.47 µM; IC50 (HCC1806 cells; [6]): 0.29 µM; IC50 (BT-549 cells; [6]): 0.13 µM; IC50 (MDA-MB-468 cells; [7]): 0.11 µM; GRmax (MDA-MB-468 cells; [8]): 0.01; IC50 (MDA-MB-468 cells; [6]): 0.051 µM; IC50 (MDA-MB-436 cells; [6]): 0.32 µM; IC50 (MCF-7 cells; [7]): 1.2 µM; IC50 (MCF-7 cells; [6]): 0.075 µM; IC50 (HCC70 cells; [7]): 0.98 µM; IC50 (HCC70 cells; [6]): 0.14 µM; IC50 (MCF-10A cells; [7]): 0.088 µM; GRmax (MCF-10A cells; [8]): −0.05; IC50 (MCF-10A cells; [6]): 0.095 µM
